Consider one molecule from patent US20250041335A1, “PERCARBONATE COMPOSITIONS AND USES THEREOF” (ThermoLife International, LLC, priority 2023, published 2025).

The conditions of data set [1]: label language of products on the market; cited from earlier work.
For the next data set, the system named is human subject. To be noted: person, 2 grams oral, two 000 capsules, just before kayaking.
Where [2] appears, read: ingested before exercise, humans.
Where [3] appears, read: 2 grams oral, two 000 capsules, immediately before exercise, all subjects, self-described.
[4] abbreviates: subject with diabetes, 2 grams oral, self-described.

Regarding `O=C([O-])[O-].O=C([O-])[O-].OO.OO.OO.[Na+].[Na+].[Na+].[Na+]` [sodium percarbonate], the “effects of ingestion per product poisoning warning” value in data set [1] is “may cause bloating, belching, irritation of the mouth and throat, nausea, vomiting, abdominal pain and diarrhea”. The “detrimental gastrointestinal effects (nausea, diarrhea)” value in the data set on humans (doses of 2-10 grams in humans, preferably capsule form) is “did not result in nausea, diarrhea or any other detrimental gastrointestinal effects”. In addition, in the data set on humans (setting [2]), the endurance entry is on record as “increased”; the “lactic acid "burn"” value is “decreased”; the recovery from exercise result is recorded as “improved”; the “stimulatory effects like those of caffeine and other stimulants” value is “did not have any appreciable stimulatory effects”. In the data set with humans (setting [2]), the strength result was “increased”. For the same molecule, in the data set on human subjects (setting [3]), the endurance entry is given as “increased”; the lactic acid burn result is “reduced”; the “recovery during and after the session of exercise” value was “improved”; the strength result is “increased”. In the data set on human subjects (person, 2 grams oral before StairMaster cardio session after leg training, self-described), the leg ache entry was “didn't ache as much as usual”. The endurance levels result in the data set on human subjects (person, 2 grams oral before StairMaster cardio session after leg training, without breaking fast) was “definitely better than normal”. In the data set on human subjects (setting [4]), the breathing result is recorded as “feels good”; the recovery between sets result is recorded as “quicker”; the “stamina/endurance through back workout and cardio” value was “still feel like I could keep going”. Moreover, in the data set with human subject, the burning in muscles result was “did not feel any burning in their muscles” and the endurance result is “greatly increased”.
